Test results as given in ChEMBL document CHEMBL1138190, “Synthesis and antibacterial activity of novel C12 vinyl ketolides” (J Med Chem, 2006).
Converted amounts (≈) assume the structure as drawn.

Legend:
Type in all cases: functional
Haemophilus influenzae [1] = experiment: Antibacterial activity against Haemophilus influenzae 2762
Staphylococcus aureus [2] = experiment: Antibacterial activity against Staphylococcus aureus 29213
Staphylococcus aureus [3] = experiment: Antibacterial activity against Staphylococcus aureus 33591
[4] = system: Staphylococcus epidermidis; experiment: Antibacterial activity against Staphylococcus epidermidis 14990
[5] = system: Staphylococcus epidermidis; experiment: Antibacterial activity against Staphylococcus epidermidis f50654
Enterococcus faecalis [6] = experiment: Antibacterial activity against Enterococcus faecalis 29212
Enterococcus faecalis [7] = experiment: Antibacterial activity against Enterococcus faecalis bc11148-2
Streptococcus pyogenes = experiment: Antibacterial activity against Streptococcus pyogenes 8668
Streptococcus pneumoniae [8] = experiment: Antibacterial activity against Streptococcus pneumoniae 49619
Streptococcus pneumoniae [9] = experiment: Antibacterial activity against Streptococcus pneumoniae 297-749
Streptococcus pneumoniae [10] = experiment: Antibacterial activity against Streptococcus pneumoniae 280-962
Streptococcus pneumoniae [11] = experiment: Antibacterial activity against Streptococcus pneumoniae Erm 6849
Streptococcus pneumoniae [12] = experiment: Antibacterial activity against Streptococcus pneumoniae Mef 5654
Streptococcus pneumoniae [13] = experiment: Antibacterial activity against Streptococcus pneumoniae Mef S 3427
Haemophilus influenzae [14] = experiment: Antibacterial activity against Haemophilus influenzae 49247

| SMILES | MIC (Haemophilus influenzae [1]) [µg/mL] | MIC (Staphylococcus aureus [2]) [µg/mL] | MIC (Staphylococcus aureus [3]) [µg/mL] | MIC [4] [µg/mL] | MIC [5] [µg/mL] | MIC (Enterococcus faecalis [6]) [µg/mL] | MIC (Enterococcus faecalis [7]) [µg/mL] | MIC (Streptococcus pyogenes) [µg/mL] | MIC (Streptococcus pneumoniae [8]) [µg/mL] | MIC (Streptococcus pneumoniae [9]) [µg/mL] | MIC (Streptococcus pneumoniae [10]) [µg/mL] | MIC (Streptococcus pneumoniae [11]) [µg/mL] | MIC (Streptococcus pneumoniae [12]) [µg/mL] | MIC (Streptococcus pneumoniae [13]) [µg/mL] | MIC (Haemophilus influenzae [14]) [µg/mL] |
| --- | --- | --- | --- | --- | --- | --- | --- | --- | --- | --- | --- | --- | --- | --- | --- |
| C=C[C@]12OC(=O)N(CCCCc3ccc(-c4cccnc4)s3)[C@@H]1[C@@H](C)C(=O)[C@H](C)C[C@@](C)(OC)[C@H](O[C@@H]1O[C@H](C)C[C@H](N(C)C)[C@H]1O)[C@@H](C)C(=O)[C@@H](C)C(=O)O[C@@H]2CC | 3.13 (≈ 3.73 µM) | 0.2 (≈ 0.238 µM) | 12.5 (≈ 14.9 µM) | 0.2 (≈ 0.238 µM) | 0.2 (≈ 0.238 µM) | 0.1 (≈ 0.119 µM) | 3.13 (≈ 3.73 µM) | 0.1 (≈ 0.119 µM) | ≤ 0.05 | ≤ 0.05 | ≤ 0.05 | 3.13 (≈ 3.73 µM) | 0.78 (≈ 0.928 µM) | 0.2 (≈ 0.238 µM) | 3.13 (≈ 3.73 µM) |
| C=C[C@]12OC(=O)N(CCCCn3ccc4c(N)cccc43)[C@@H]1[C@@H](C)C(=O)[C@H](C)C[C@@](C)(OC)[C@H](O[C@@H]1O[C@H](C)C[C@H](N(C)C)[C@H]1O)[C@@H](C)C(=O)[C@@H](C)C(=O)O[C@@H]2CC | 3.13 (≈ 3.86 µM) | 0.1 (≈ 0.123 µM) | > 50 | 0.1 (≈ 0.123 µM) | 0.78 (≈ 0.962 µM) | ≤ 0.05 | 0.625 (≈ 0.771 µM) | ≤ 0.05 | ≤ 0.05 | ≤ 0.05 | ≤ 0.05 | 3.13 (≈ 3.86 µM) | 0.78 (≈ 0.962 µM) | 0.1 (≈ 0.123 µM) | 3.13 (≈ 3.86 µM) |
| C=C[C@]12OC(=O)N(CCCCn3cnc4c(C)ncnc43)[C@@H]1[C@@H](C)C(=O)[C@H](C)C[C@@](C)(OC)[C@H](O[C@@H]1O[C@H](C)C[C@H](N(C)C)[C@H]1O)[C@@H](C)C(=O)[C@@H](C)C(=O)O[C@@H]2CC | 0.78 (≈ 0.959 µM) | 0.1 (≈ 0.123 µM) | > 50 | 0.1 (≈ 0.123 µM) | 0.1 (≈ 0.123 µM) | ≤ 0.05 | 0.4 (≈ 0.492 µM) | ≤ 0.05 | ≤ 0.05 | ≤ 0.05 | ≤ 0.05 | > 50 | 0.78 (≈ 0.959 µM) | 0.2 (≈ 0.246 µM) | 3.13 (≈ 3.85 µM) |
| C=C[C@]12OC(=O)N(CCCCn3cnc(-c4ccc(F)nc4)c3)[C@@H]1[C@@H](C)C(=O)[C@H](C)C[C@@](C)(OC)[C@H](O[C@@H]1O[C@H](C)C[C@H](N(C)C)[C@H]1O)[C@@H](C)C(=O)[C@@H](C)C(=O)O[C@@H]2CC | 1.56 (≈ 1.85 µM) | 0.1 (≈ 0.119 µM) | > 50 | 0.1 (≈ 0.119 µM) | 0.1 (≈ 0.119 µM) | 0.1 (≈ 0.119 µM) | 0.4 (≈ 0.475 µM) | ≤ 0.05 | ≤ 0.05 | ≤ 0.05 | ≤ 0.05 | 0.78 (≈ 0.926 µM) | 0.4 (≈ 0.475 µM) | 0.1 (≈ 0.119 µM) | 3.13 (≈ 3.72 µM) |
| C=C[C@]12OC(=O)N(CCCCn3cnc(-c4ccc(O)nc4)c3)[C@@H]1[C@@H](C)C(=O)[C@H](C)C[C@@](C)(OC)[C@H](O[C@@H]1O[C@H](C)C[C@H](N(C)C)[C@H]1O)[C@@H](C)C(=O)[C@@H](C)C(=O)O[C@@H]2CC | 1.56 (≈ 1.86 µM) | 0.4 (≈ 0.476 µM) | > 50 | 0.2 (≈ 0.238 µM) | 0.2 (≈ 0.238 µM) | 0.2 (≈ 0.238 µM) | 3.13 (≈ 3.73 µM) | ≤ 0.05 | ≤ 0.05 | ≤ 0.05 | ≤ 0.05 | 12.5 (≈ 14.9 µM) | 3.13 (≈ 3.73 µM) | 1.56 (≈ 1.86 µM) | 6.25 (≈ 7.44 µM) |
| C=C[C@]12OC(=O)N(CCCCn3cnc(-c4cccnc4)c3)[C@@H]1[C@@H](C)C(=O)[C@H](C)C[C@@](C)(OC)[C@H](O[C@@H]1O[C@H](C)C[C@H](N(C)C)[C@H]1O)[C@@H](C)C(=O)[C@@H](C)C(=O)O[C@@H]2CC | 1.56 (≈ 1.89 µM) | 0.1 (≈ 0.121 µM) | > 50 | 0.2 (≈ 0.243 µM) | 0.2 (≈ 0.243 µM) | 0.1 (≈ 0.121 µM) | 0.4 (≈ 0.485 µM) | ≤ 0.05 | ≤ 0.05 | ≤ 0.05 | ≤ 0.05 | 0.2 (≈ 0.243 µM) | 0.4 (≈ 0.485 µM) | 0.1 (≈ 0.121 µM) | 3.13 (≈ 3.8 µM) |
| C=C[C@]12OC(=O)N(CCN(C)Cc3ccnc(-c4cccnc4)c3)[C@@H]1[C@@H](C)C(=O)[C@H](C)C[C@@](C)(OC)[C@H](O[C@@H]1O[C@H](C)C[C@H](N(C)C)[C@H]1O)[C@@H](C)C(=O)[C@@H](C)C(=O)O[C@@H]2CC | 3.13 (≈ 3.68 µM) | 0.2 (≈ 0.235 µM) | > 50 | 0.2 (≈ 0.235 µM) | 0.2 (≈ 0.235 µM) | 0.1 (≈ 0.118 µM) | 0.2 (≈ 0.235 µM) | ≤ 0.05 | ≤ 0.05 | ≤ 0.05 | ≤ 0.05 | ≤ 0.05 | 0.4 (≈ 0.471 µM) | 0.1 (≈ 0.118 µM) | 6.25 (≈ 7.35 µM) |
| C=C[C@]12OC(=O)N(CCCC(C)(C)n3cnc4ncccc43)[C@@H]1[C@@H](C)C(=O)[C@H](C)C[C@@](C)(OC)[C@H](O[C@@H]1O[C@H](C)C[C@H](N(C)C)[C@H]1O)[C@@H](C)C(=O)[C@@H](C)C(=O)O[C@@H]2CC | 0.78 (≈ 0.944 µM) | 0.2 (≈ 0.242 µM) | > 50 | 0.2 (≈ 0.242 µM) | 0.1 (≈ 0.121 µM) | 0.1 (≈ 0.121 µM) | 0.4 (≈ 0.484 µM) | ≤ 0.05 | ≤ 0.05 | ≤ 0.05 | ≤ 0.05 | 0.1 (≈ 0.121 µM) | 0.78 (≈ 0.944 µM) | 0.2 (≈ 0.242 µM) | 6.25 (≈ 7.57 µM) |
| C=C[C@]12OC(=O)N(CCCCn3cnc(-c4ccc(OC)nc4)c3C)[C@@H]1[C@@H](C)C(=O)[C@H](C)C[C@@](C)(OC)[C@H](O[C@@H]1O[C@H](C)C[C@H](N(C)C)[C@H]1O)[C@@H](C)C(=O)[C@@H](C)C(=O)O[C@@H]2CC | 1.56 (≈ 1.8 µM) | 0.2 (≈ 0.23 µM) | > 50 | 0.1 (≈ 0.115 µM) | 0.4 (≈ 0.461 µM) | 0.2 (≈ 0.23 µM) | 1.56 (≈ 1.8 µM) | ≤ 0.05 | ≤ 0.05 | ≤ 0.05 | ≤ 0.05 | 0.4 (≈ 0.461 µM) | 1.56 (≈ 1.8 µM) | 0.2 (≈ 0.23 µM) | 6.25 (≈ 7.2 µM) |
| C=C[C@]12OC(=O)N(CCCCn3cnc(-c4cnc(C)cn4)c3)[C@@H]1[C@@H](C)C(=O)[C@H](C)C[C@@](C)(OC)[C@H](O[C@@H]1O[C@H](C)C[C@H](N(C)C)[C@H]1O)[C@@H](C)C(=O)[C@@H](C)C(=O)O[C@@H]2CC | 0.78 (≈ 0.93 µM) | 0.1 (≈ 0.119 µM) | > 50 | 0.2 (≈ 0.238 µM) | 0.1 (≈ 0.119 µM) | 0.1 (≈ 0.119 µM) | 0.78 (≈ 0.93 µM) | ≤ 0.05 | ≤ 0.05 | ≤ 0.05 | ≤ 0.05 | 0.2 (≈ 0.238 µM) | 0.78 (≈ 0.93 µM) | 0.2 (≈ 0.238 µM) | 3.13 (≈ 3.73 µM) |
| C=C[C@]12OC(=O)N(CCCCn3cnc(-c4ccc(OC)nc4)c3)[C@@H]1[C@@H](C)C(=O)[C@H](C)C[C@@](C)(OC)[C@H](O[C@@H]1O[C@H](C)C[C@H](N(C)C)[C@H]1O)[C@@H](C)C(=O)[C@@H](C)C(=O)O[C@@H]2CC | 0.78 (≈ 0.913 µM) | 0.1 (≈ 0.117 µM) | > 50 | 0.2 (≈ 0.234 µM) | 0.1 (≈ 0.117 µM) | ≤ 0.05 | 0.78 (≈ 0.913 µM) | ≤ 0.05 | ≤ 0.05 | ≤ 0.05 | ≤ 0.05 | 0.4 (≈ 0.468 µM) | 0.78 (≈ 0.913 µM) | 0.1 (≈ 0.117 µM) | 6.25 (≈ 7.32 µM) |
| C=C[C@]12OC(=O)N(CCCCn3cnc(-c4ccc(NC)nc4)c3)[C@@H]1[C@@H](C)C(=O)[C@H](C)C[C@@](C)(OC)[C@H](O[C@@H]1O[C@H](C)C[C@H](N(C)C)[C@H]1O)[C@@H](C)C(=O)[C@@H](C)C(=O)O[C@@H]2CC | 0.78 (≈ 0.914 µM) | 0.1 (≈ 0.117 µM) | > 50 | 0.2 (≈ 0.234 µM) | 0.1 (≈ 0.117 µM) | 0.1 (≈ 0.117 µM) | 0.78 (≈ 0.914 µM) | ≤ 0.05 | ≤ 0.05 | ≤ 0.05 | ≤ 0.05 | 0.4 (≈ 0.469 µM) | 1.56 (≈ 1.83 µM) | 0.2 (≈ 0.234 µM) | 3.13 (≈ 3.67 µM) |
| C=C[C@]12OC(=O)N(CCCCn3cnc(-c4ccc(N(C)C)nc4)c3)[C@@H]1[C@@H](C)C(=O)[C@H](C)C[C@@](C)(OC)[C@H](O[C@@H]1O[C@H](C)C[C@H](N(C)C)[C@H]1O)[C@@H](C)C(=O)[C@@H](C)C(=O)O[C@@H]2CC | 1.56 (≈ 1.8 µM) | 0.2 (≈ 0.231 µM) | > 50 | 0.2 (≈ 0.231 µM) | 0.2 (≈ 0.231 µM) | 0.1 (≈ 0.115 µM) | 0.78 (≈ 0.9 µM) | ≤ 0.05 | ≤ 0.05 | ≤ 0.05 | ≤ 0.05 | 0.78 (≈ 0.9 µM) | 1.56 (≈ 1.8 µM) | 0.2 (≈ 0.231 µM) | 12.5 (≈ 14.4 µM) |
| C=C[C@]12OC(=O)N(CCN(C)Cc3ccc(-c4cccnc4)s3)[C@@H]1[C@@H](C)C(=O)[C@H](C)C[C@@](C)(OC)[C@H](O[C@@H]1O[C@H](C)C[C@H](N(C)C)[C@H]1O)[C@@H](C)C(=O)[C@@H](C)C(=O)O[C@@H]2CC | 3.13 (≈ 3.66 µM) | 0.2 (≈ 0.234 µM) | > 50 | 0.1 (≈ 0.117 µM) | 0.2 (≈ 0.234 µM) | 0.1 (≈ 0.117 µM) | 0.4 (≈ 0.468 µM) | ≤ 0.05 | ≤ 0.05 | ≤ 0.05 | ≤ 0.05 | 0.2 (≈ 0.234 µM) | 0.78 (≈ 0.912 µM) | 0.1 (≈ 0.117 µM) | 6.25 (≈ 7.31 µM) |
| C=C[C@]12OC(=O)N(CCCCc3cnc(-c4cccnc4)s3)[C@@H]1[C@@H](C)C(=O)[C@H](C)C[C@@](C)(OC)[C@H](O[C@@H]1O[C@H](C)C[C@H](N(C)C)[C@H]1O)[C@@H](C)C(=O)[C@@H](C)C(=O)O[C@@H]2CC | 1.56 (≈ 1.85 µM) | 0.1 (≈ 0.119 µM) | > 50 | 0.1 (≈ 0.119 µM) | 0.1 (≈ 0.119 µM) | ≤ 0.05 | 1.56 (≈ 1.85 µM) | ≤ 0.05 | ≤ 0.05 | ≤ 0.05 | ≤ 0.05 | 1.56 (≈ 1.85 µM) | 0.4 (≈ 0.476 µM) | ≤ 0.05 | 3.13 (≈ 3.72 µM) |
